# ChEMBL document CHEMBL1142978, “Probing the anticancer activity of nucleoside analogues: a QSAR model approach using an internally consistent training set” (J Med Chem, 2007)
# pIC50: −log10 of the molar value.
# Assay: Cytotoxicity against mouse L1210/0 cells after 48 hrs
# Assay type: cell-based
# Details: Mus musculus, L1210/0, 48 h
row,Structure (SMILES),pIC50
1,CC(O)Cn1cnc2c(F)nc(N)nc21 (stereo unspecified),< 3.70
2,N#CSc1cn([C@H]2C[C@H](O)[C@@H](CO)O2)c(=O)[nH]c1=O,4.10
3,CC1(C)[C@H](CCO)C[C@@H]1n1cnc2c(Cl)nc(N)nc21,3.98
4,CC1(C)[C@@H](CO)CC[C@@]1(C)Cn1nnc2c(=O)[nH]cnc21,< 3.70
5,"Nc1ncnc2c1ncn2[C@@H]1O[C@H](C=O)C(O)C1O (single isomer, unassigned)",4.44
6,O=c1[nH]c(=O)n([C@H]2C[C@H](O)[C@@H](CO)O2)cc1/C=C/Br [BRIVUDINE],4.09
7,COc1ccc(C(=O)/C=C/c2cc(=O)[nH]c(=O)n2COCCO)cc1,4.48
8,Nc1nc(Cl)c2ncn([C@H]3CCCC[C@H]3CO)c2n1,< 3.70
9,Nc1ncnc2c1ncn2[C@@H]1O[C@H](/C=C\I)[C@H](O)[C@@H]1O,4.37
10,"Nc1ncnc2c1ncn2C1OC(C(O)O)[C@H](O)[C@H]1O (single isomer, unassigned)",< 3.70
11,Nc1ncnc2c1ncn2[C@@H]1C[C@@H]2COC[C@H]2[C@H]1CO,< 3.70
12,CC(O)Cn1cnc2c(N)nc(I)nc21 (stereo unspecified),< 3.70
13,Nc1ncnc2c1ncn2CCOCP(=O)(O)O [ADEFOVIR],5.13
14,O=c1[nH]cnc2c1ncn2[C@@H]1C[C@@H]2COC[C@H]2[C@H]1CO,< 3.70
15,CC1(C)[C@@H](CCCO)C[C@H]1n1cnc2c(=O)[nH]c(N)nc21,< 3.70
16,OC[C@@H]1CCC[C@H]1Cn1cnc2c(O)ncnc21,< 3.70
17,Nc1ccn(COCCO)c(=O)n1,< 3.70
18,CC(C)(C)C#Cc1cn([C@H]2C[C@H](O)[C@@H](CO)O2)c(=O)[nH]c1=O,< 3.70
19,CC1(C)C(CO)CC1Cn1nnc2c(N)nc(N)nc21 (stereo unspecified),< 3.70
20,COc1cc(-c2cn([C@H]3C[C@H](O)[C@@H](CO)O3)c(=O)[nH]c2=O)c(OC)c(C)c1C,< 3.70
21,O=c1[nH]c(=O)n(COCCO)cc1Cl,< 3.70
22,Nc1nc2c(nc(O)n2COCCO)c(=O)[nH]1,< 3.70

row,Structure (SMILES),pIC50
1,OC[C@@H]1C[C@H](Cn2cnc3c(NC4CCC4)ncnc32)c2c(-c3ccccc3)nnc(-c3ccccc3)c21,4.04
2,CC(=O)OCCOCn1cnc2c(S)nc(F)nc21,4.40
3,CC1(C)[C@@H](CO)CC[C@@]1(C)Cn1cc(Br)c(=O)[nH]c1=O,< 3.70
4,O=c1ccn(C[C@@H]2CCC[C@H]2CO)c(=O)[nH]1,< 3.70
5,O=C1O/C(=C/Cn2cnc3ncnc(Cl)c32)C(OCc2ccccc2)=C1OCc1ccccc1,5.39
6,Nc1ncnc2c1nnn2[C@@H]1C[C@H](CO)[C@@H](CO)[C@H]1CO,< 3.70
7,COc1c(C)c(C)c(OC)c(-c2cn([C@H]3C[C@H](O)[C@@H](CO)O3)c(=O)[nH]c2=O)c1C,< 3.70
8,CC(=O)OC(C)Cn1cnc2c(Cl)nc(F)nc21 (stereo unspecified),4.43
9,Nc1ncnc2c1ncn2C1C[C@@H](CO)[C@@H](CO)C1 (stereo partly specified),< 3.70
10,COCC#Cc1cn([C@H]2C[C@H](O)[C@@H](CO)O2)c(=O)[nH]c1=O,< 3.70
11,COc1ccccc1-c1ncnc2c1ncn2C[C@@H]1C[C@H](O)c2ccccc21,< 3.70
12,O=C1O/C(=C\Cn2cc(C(F)(F)F)c(=O)[nH]c2=O)C(OCc2ccccc2)=C1OCc1ccccc1,5.70
13,C[S+]([O-])c1cn([C@H]2C[C@H](O)[C@@H](CO)O2)c(=O)[nH]c1=O (stereo partly specified),< 3.70
14,Nc1nc(=O)n(COCCO)cc1[N+](=O)[O-],< 3.70
15,N#Cc1cn([C@H]2C[C@H](O)[C@@H](CO)O2)c(=O)[nH]c1=O,< 3.70
16,CC1(C)[C@@H](CCCO)C[C@H]1n1nnc2c(=O)[nH]c(N)nc21,< 3.70
17,COC1=C(OC)/C(=C/CP(=O)(OC)OC)OC1=O,< 3.70
18,Nc1ncnc2c1ncn2[C@@H]1CCC[C@H]1CO,< 3.70
19,C[C@H](O)C1CC(Cn2cnc3c(=O)[nH]cnc32)C1(C)C (stereo partly specified),< 3.70
20,Nc1nc(Cl)c2nnn(C[C@H]3CC[C@@H](CO)C3)c2n1,3.77
21,Cc1ccc(S(=O)(=O)/C=C/[C@H]2O[C@@H](n3cnc4c(N)ncnc43)[C@@H](O)[C@H]2O)cc1,4.27
22,C[C@@]1(CO)O[C@H](c2cc(F)c(N)cc2F)C[C@@H]1O,< 3.70

row,Structure (SMILES),pIC50
1,O=c1[nH]c(=O)n(C[C@@H]2C[C@H](O)c3ccccc32)cc1Br,< 3.70
2,O=C1O/C(=C\Cn2ccc(=O)[nH]c2=O)C(OCc2ccccc2)=C1OCc1ccccc1,4.89
3,Nc1ncnc2c1ncn2[C@@H]1O[C@H](/C=C/F)[C@H](O)[C@@H]1O,< 3.70
4,Nc1ncnc2c1ncn2[C@@H]1O[C@H](/C=C\Br)[C@H](O)[C@@H]1O,3.98
5,CC1(C)[C@@H](CO)CC[C@@]1(C)Cn1nnc2c(N)ncnc21,< 3.70
6,CC(=O)OCCOCn1cnc2c(Cl)nc(N)nc21,< 3.70
7,O=C1NCN([C@@H]2O[C@H](COP3OCCC(F)(F)O3)[C@@H](O)C2=O)C=C1F (stereo partly specified),8.00
8,O=c1[nH]c(=O)n([C@H]2C[C@H](O)[C@@H](CO)O2)cc1/C=C/I,4.19
9,OC[C@@H]1C[C@H](Cn2cnc3c(Cl)ncnc32)c2c(-c3ccccc3)nnc(-c3ccccc3)c21,< 3.70
10,O=C1OC(C(O)Cn2ccc(=O)[nH]c2=O)C(OCc2ccccc2)=C1OCc1ccccc1 (stereo unspecified),3.80
11,Nc1nc2c(ncn2COCCO)c(=O)[nH]1 [ACYCLOVIR],4.24
12,CCCC#Cc1cn([C@H]2C[C@H](O)[C@@H](CO)O2)c(=O)[nH]c1=O,< 3.70
13,Nc1nc2c(ncn2CCOCP(=O)(O)O)c(=O)[nH]1 [GS-438],6.24
14,Nc1ncnc2c1ncn2[C@@H]1O[C@H](C=O)C[C@@H]1O,< 3.70
15,O=c1[nH]cnc2c1ncn2C1CC(CO)C(CO)C1 (stereo unspecified),< 3.70
16,O=c1ccn(C[C@@H]2C[C@H](CO)c3ccccc32)c(=O)[nH]1,< 3.70
17,CC(=O)OCCOCn1cnc2c(Cl)nc(I)nc21,5.07
18,O=C(/C=C/c1cc(=O)[nH]c(=O)n1COCCO)c1ccccc1,4.36
19,O[C@H]1C[C@@H](Cn2cnc3c(-c4ccccc4)ncnc32)c2ccccc21,< 3.70
20,Nc1nc(Cl)c2ncn(COCCO)c2n1,< 3.70
21,O=c1[nH]c(=O)n([C@H]2C[C@H](O)[C@@H](CO)O2)cc1/C=C/Cl,< 3.70
22,CC(O)Cn1cnc2c(S)nc(F)nc21 (stereo unspecified),< 3.70

row,Structure (SMILES),pIC50
1,OCCOCn1cnc2c(S)nc(F)nc21,3.77
2,COc1ccc(C(=O)/C=C/c2cc(O)nc(O)n2)cc1,< 3.70
3,Nc1nc(N)c2ncn(CCOCP(=O)(O)O)c2n1 [PMEDAP],5.76
4,OC[C@@H]1CC(n2cnc3c(NC4CC4)ncnc32)C[C@@H]1CO (stereo partly specified),< 3.70
5,Cc1ccc(S(=O)(=O)OCCC#Cc2cn([C@H]3C[C@H](O)[C@@H](CO)O3)c(=O)[nH]c2=O)cc1,< 3.70
6,O=C1O/C(=C\Cn2ccc(=O)[nH]c2=O)C(Cc2ccccc2)=C1O,< 3.70
7,OCCOCn1cnc2c(O)ncnc21,< 3.70
8,CC1(C)[C@@H](CCCO)C[C@H]1n1nnc2c(N)nc(N)nc21,< 3.70
9,O=C1C=CN(COCCO)C(=O)C1,< 3.70
10,O=C1O/C(=C\Cn2cc(I)c(=O)[nH]c2=O)C(OCc2ccccc2)=C1OCc1ccccc1,5.12
11,OC[C@H]1C[C@@H](Cn2cnc3c(O)ncnc32)c2ccccc21,< 3.70
12,CC1(C)C(CO)CC1Cn1nnc2c(=O)[nH]c(N)nc21 (stereo unspecified),< 3.70
13,CN(C)c1nc2c(=O)[nH]c(N)nc2n1COCCO,< 3.70
14,COc1ccccc1C(=O)/C=C/c1cc(=O)[nH]c(=O)n1COCCO,4.82
15,O=c1[nH]cnc2c1nnn2C[C@H]1CCC[C@H]1CO,< 3.70
16,Nc1nc2c(nc(Br)n2COCCO)c(=O)[nH]1,< 3.70
17,C#C[C@H]1O[C@@H](n2cnc3c(N)ncnc32)[C@@H](O)[C@H]1O,5.92
18,CC1(C)C(CO)CC1Cn1cnc2c(Cl)nc(N)nc21 (stereo unspecified),< 3.70
19,C[C@H](O)C1CC(Cn2cnc3c(N)ncnc32)C1(C)C (stereo partly specified),< 3.70
20,C#Cc1cn([C@H]2C[C@H](O)[C@@H](CO)O2)c(=O)[nH]c1=O,6.44
21,Oc1ncnc2c1ncn2C[C@@H]1C[C@H](O)c2ccccc21,< 3.70
22,O=c1[nH]c(=O)n([C@H]2C[C@H](O)[C@@H](CO)O2)cc1C#Cc1ccccc1,< 3.70

row,Structure (SMILES),pIC50
1,O=C(CI)NCc1cn([C@H]2C[C@H](O)[C@@H](CO)O2)c(=O)[nH]c1=O,3.97
2,O=c1[nH]c(=O)n([C@H]2C[C@H](O)[C@@H](CO)O2)cc1C1SCCS1,< 3.70
3,O=C1O/C(=C\Cn2cnc3c(Cl)ncnc32)C(OCc2ccccc2)=C1OCc1ccccc1,4.94
4,O=c1[nH]c(=O)n(C[C@H]2CCC[C@H]2CO)cc1I,< 3.70
5,CC1=C(C)C(=O)C(c2cn([C@H]3C[C@H](O)[C@@H](CO)O3)c(=O)[nH]c2=O)=C(C)C1=O,3.76
6,O=C1NCN([C@@H]2O[C@H](COP3OCCC(O)O3)[C@@H](O)C2=O)C=C1F (stereo partly specified),6.08
7,Nc1ncnc2c1ncn2[C@@H]1O[C@H](/C=C\Cl)[C@H](O)[C@@H]1O,3.84
8,CN(C)c1ncnc2c1ncn2COCCO,< 3.70
9,C[C@H](O)C1CC(Cn2nnc3c(N)ncnc32)C1(C)C (stereo partly specified),< 3.70
10,Nc1nc(NC2CC2)c2ncn(CCOCP(=O)(O)O)c2n1,4.99
11,Nc1ncnc2c1ncn2C[C@@H]1C[C@H](O)c2ccccc21,< 3.70
12,Nc1nc(Cl)c2nnn([C@H]3CCCC[C@H]3CO)c2n1,4.02
13,O=C1O/C(=C\Cn2cc(Br)c(=O)[nH]c2=O)C(OCc2ccccc2)=C1OCc1ccccc1,5.12
14,CO/N=C/C1CC(n2cnc3c(N)ncnc32)C(O)C1O (stereo unspecified),< 3.70
15,O=c1ccn([C@@H]2CCC[C@H]2CO)c(=O)[nH]1,< 3.70
16,O=c1[nH]c(=O)n([C@H]2C[C@H](O)[C@@H](CO)O2)cc1C(F)(F)F [TRIFLURIDINE],7.70
17,CC(=O)OCCOCn1cnc2c(Cl)nc(Cl)nc21,4.41
18,Nc1ccn(C[C@@H]2C[C@H](CO)c3ccccc32)c(=O)n1,< 3.70
19,Nc1nc2c(nc(I)n2COCCO)c(=O)[nH]1,3.95
20,Nc1nc(N)c2nnn([C@H]3CCCC[C@H]3CO)c2n1,< 3.70
21,CC1(C)[C@@H](CO)CC[C@@]1(C)Cn1cnc2c(Cl)ncnc21,4.37

# Same assay, conditions: l1210/0
row,Structure (SMILES),pIC50
1,Nc1ncnc2c1ncn2[C@@H]1O[C@H](/C=N/O)[C@@H](O)[C@H]1O (stereo in doubt; 82),4.43
2,Nc1ncnc2c1ncn2[C@@H]1O[C@H](/C=N/O)[C@@H](O)[C@H]1O (stereo in doubt; 75),5.19
